From PMC3259259 (Chemical Research in Toxicology, 2011)
Read-outs that look alike come from different tables or passages of the source.

How the values were obtained:
[1] = Single-turnover; parameters: species or system [13, 20]; details: read-out: Kd (incoming nucleotide, Pol•DNA complex), Pol β, 37 °C
[2] = Single-turnover; parameters: species or system [13, 20]; details: read-out: Kd (incoming nucleotide, Pol•DNA complex), Pol λ, 37 °C
[3] = Single-turnover; parameters: species or system [13, 20]; details: read-out: Kd (incoming nucleotide, Pol•DNA complex), Pol η, 37 °C
[4] = Single-turnover; parameters: species or system [13, 20]; details: Pol κ; for Kd: read-out: Kd (incoming nucleotide, Pol•DNA complex), 37 °C
[5] = Single-turnover; parameters: species or system [13, 20]; details: Pol ι; for Kd: read-out: Kd (incoming nucleotide, Pol•DNA complex), 37 °C
[6] = Single-turnover; parameters: species or system [13, 20]; details: Rev1; for Kd: read-out: Kd (incoming nucleotide, Pol•DNA complex)
[7] = read-out: Kd (incoming nucleotide, Pol•DNA complex), Pol λ, 37 °C, cited from earlier work
[8] = read-out: Kd (incoming nucleotide, Pol•DNA complex); HIV-1 RT; opposite template dC; 37 °C; cited from earlier work
[9] = read-out: Kd (incoming nucleotide, Pol•DNA complex), Pol β, 37 °C, cited from earlier work
[10] = read-out: Kd (incoming nucleotide, Pol•DNA complex), Pol η, 37 °C, cited from earlier work
[11] = read-out: Kd (incoming nucleotide, Pol•DNA complex), Pol κ, 37 °C, cited from earlier work
[12] = Pol ι, 37 °C, cited from earlier work; for Kd: read-out: Kd (incoming nucleotide, Pol•DNA complex)
[13] = Rev1, 37 °C, cited from earlier work; for Kd: read-out: Kd (incoming nucleotide, Pol•DNA complex)
[14] = read-out: Kd (incoming nucleotide, Pol•DNA complex), Pol γ, 37 °C, cited from earlier work
[15] = read-out: Kd (incoming nucleotide, Pol•DNA complex); T7 exo; opposite template dT; 37 °C; cited from earlier work
[16] = Single-turnover kinetic assays, summary over the non-canonical human pols; parameters: species or system [13, 20]
[17] = Pols β, λ, η, ι, κ, Rev1; cited from earlier work

## Nc1ncnc2c1ncn2CCOCP(=O)(O)OP(=O)(O)OP(=O)(O)O [PMEA-DP, diphosphate of 9-[2-(phosphonomethoxy)ethyl]adenine]
[1]; opposite template dT
  Kd: 65 ± 6 µM
[2]; opposite template dT (21-19C-41merTG)
  Kd: 4.5 ± 0.3 µM
[3]; opposite template dT
  Kd: 55 ± 18 µM
[4]; opposite template dT
  Decrease of rate of incorporation relative to dATP: 60 fold
  Ground-state binding affinity (1/Kd) weaker than dATP: 3 fold
  Kd: 23 ± 3 µM
[5]; opposite template dT
  Decrease of rate of incorporation relative to dATP: 30 fold
  Ground-state binding affinity (1/Kd) relative to dATP: unchanged
  Kd: 180 ± 40 µM
[6]; opposite template dT
  Decrease of rate of incorporation relative to dATP: 4 fold
  Ground-state binding affinity (1/Kd) weaker than dATP: 60 fold
[6]; opposite template dT, 37 °C
  Kd: 120 ± 20 µM

## Nc1nc2c(ncn2[C@H]2C[C@H](O)[C@@H](COP(=O)(O)OP(=O)(O)OP(=O)(O)O)O2)c(=O)[nH]1 [dGTP]
[1]; opposite template dC
  Kd: 8.7 ± 0.4 µM
[3]; opposite template dC
  Kd: 80 ± 10 µM
[4]; opposite template dC
  Kd: 10.6 ± 0.9 µM
[5]; opposite template dC
  Kd: 141 ± 8 µM
[6]; opposite template dC, 37 °C
  Kd: 3.9 ± 0.8 µM
[7]; opposite template dC
  Kd: 2.1 ± 0.3 µM
[8]
  Kd: 1.76 ± 0.51 µM

## Nc1ncnc2c1ncn2[C@H]1C[C@H](O)[C@@H](COP(=O)(O)OP(=O)(O)OP(=O)(O)O)O1 [dATP]
[9]; opposite template dT
  Kd: 9.2 ± 1 µM
[7]; opposite template dT
  Kd: 0.9 ± 0.3 µM
[10]; opposite template dT
  Kd: 130 ± 30 µM
[11]; opposite template dT
  Kd: 7 ± 1 µM
[12]; opposite template dT
  Kd: 260 ± 40 µM
[13]; opposite template dT
  Kd: 2 ± 0.3 µM
[14]; opposite template dT
  Kd: 0.8 ± 0.1 µM
[15]
  Kd: 8 ± 2 µM

## Cc1cn([C@H]2C[C@H](O)[C@@H](COP(=O)(O)OP(=O)(O)OP(=O)(O)O)O2)c(=O)[nH]c1=O [dTTP]
[9]; opposite template dA
  Kd: 3.5 ± 0.5 µM
[7]; opposite template dA
  Kd: 2.6 ± 0.4 µM
[10]; opposite template dA
  Kd: 41 ± 5 µM
[11]; opposite template dA
  Kd: 11 ± 0.5 µM
[12]; opposite template dA
  Kd: 13 ± 1 µM
[13]; opposite template dA
  Kd: 6 ± 1 µM

## Cc1cn([C@@H]2C[C@@H](O)[C@H](COP(=O)(O)OP(=O)(O)OP(=O)(O)O)O2)c(=O)[nH]c1=O [L-TBV-TP, β-L-2′-deoxythymidine 5′-triphosphate]
[1]; opposite template dA
  Kd: 11 ± 1 µM
[2]; opposite template dA
  Kd: 53 ± 6 µM
[3]; opposite template dA
  Kd: 400 ± 100 µM
[4]; opposite template dA
  Kd: 90 ± 20 µM
[5]; opposite template dA
  Kd: 100 ± 30 µM
[6]; opposite template dA, 37 °C
  Kd (incoming nucleotide, Pol•DNA complex): No observed incorporation
[16]; Pols β, λ, η, ι, κ, Rev1, analog vs its natural dNTP, 37 °C
  Selection factors, range over the non-canonical human pols: greater than 8,000
[16]; pols other than Rev1
  Binding to the Pol•DNA complex weakened compared to dTTP, on average: 10 fold

## Nc1ccn([C@H]2CS[C@@H](COP(=O)(O)OP(=O)(O)OP(=O)(O)O)O2)c(=O)n1 [L-3TC-TP, β-L-2′,3′-dideoxy-3′-thiacytidine 5′-triphosphate]
[9]; opposite template dG
  Kd: 0.18 ± 0.02 µM
[7]; opposite template dG
  Kd: 0.106 ± 0.01 µM
[10]; opposite template dG
  Kd: 3.3 ± 0.3 µM
[11]; opposite template dG
  Kd: 4 ± 0.5 µM
[12]; opposite template dG
  Kd: 96 ± 8 µM
[13]; opposite template dG
  Kd: 1.04 ± 0.1 µM
[14]; opposite template dG
  Kd: 9.2 ± 0.9 µM
[17]
  Decrease of Kd compared to dCTP, on average: 6 fold

## Nc1ccn([C@H]2C[C@H](O)[C@@H](COP(=O)(O)OP(=O)(O)OP(=O)(O)O)O2)c(=O)n1 [dCTP]
[9]; opposite template dG
  Kd: 0.71 ± 0.04 µM
[7]; opposite template dG
  Kd: 0.9 ± 0.1 µM
[10]; opposite template dG
  Kd: 25 ± 4 µM
[11]; opposite template dG
  Kd: 32 ± 5 µM
[12]; opposite template dG
  Kd: 50 ± 5 µM
[13]; opposite template dG
  Kd: 2.2 ± 0.3 µM
[14]; opposite template dG
  Kd: 1.1 ± 0.1 µM

## CC(Cn1cnc2c(N)ncnc21)OCP(=O)(O)OP(=O)(O)OP(=O)(O)O (stereo not drawn) [PMPA-DP, diphosphate of 9-[2-(phosphonomethoxy)propyl]adenine]
[9]; opposite template dT
  Kd: 50 ± 10 µM
[7]; opposite template dT
  Kd: 3.7 ± 0.9 µM
[10]; opposite template dT
  Kd: 90 ± 10 µM
[11]; opposite template dT
  Kd: 3000 ± 2000 µM
[12]; opposite template dT
  Kd (incoming nucleotide, Pol•DNA complex): No observed incorporation
  kp (maximum rate of incorporation): too inefficient to be observed
[13]; opposite template dT
  Kd (incoming nucleotide, Pol•DNA complex): No observed incorporation
  kp (maximum rate of incorporation): too inefficient to be observed
[14]; opposite template dT
  Kd: 40.3 ± 5.7 µM
[15]
  Kd: 268 ± 39 µM

## C=C1[C@H](COP(=O)(O)OP(=O)(O)OP(=O)(O)O)[C@@H](O)C[C@@H]1n1cnc2c(=O)[nH]c(N)nc21 [ETV-TP, entecavir 5′-triphosphate]
[1]; opposite template dC
  Kd: 0.26 ± 0.04 µM
[2]; opposite template dC
  Kd: 0.09 ± 0.02 µM
[3]; opposite template dC
  Kd: 2.4 ± 0.4 µM
[4]; opposite template dC
  Kd: 4.2 ± 0.1 µM
[5]; opposite template dC
  Kd: 33 ± 5 µM
[6]; opposite template dC, 37 °C
  Kd: 56 ± 10 µM
[16]; Pols β, λ, η, ι, κ, Rev1
  Rate of incorporation slower than dGTP, on average: 120 fold
[16]; except for Rev1
  Binding affinity tighter than dGTP, on average: approximately 20 fold
[8]
  Kd: 2.23 ± 0.67 µM
